Results taken from patent publication US4304778A, “4-Aminoquinazoline derivatives having fungicidal, anti-insect and acaricidal properties” (Sankyo Company Limited, priority 1978, dated 1981).

Tests used:
Phytophthora infestans = format: in vivo; conditions: tomato late blight; 500 ppm; after 5 days; average per leaf
[1] = test system: Colletotrichum lagenarium; assay: Effect on anthracnose in cucumbers; format: in vivo; conditions: cucumber anthracnose; 500 ppm; seven days; cotyledon and first leaf
Protocol: (§1) In the following Examples, wettable powders prepared according to the procedures of Example 4 were used, each powder containing 50% by weight of the active compound of this invention.
Groups of cucumber plants (variety Sagamihanshiro) were planted, two per pot, in a series of Wagner pots (diameter 12 cm) and were used as host plants when the first leaf was fully grown and open. Each test group of three pots was treated with one of the active compounds shown in Table 4 by spraying an aqueous suspension containing 500 ppm of the active compound onto the plants at the rate of 30 ml per 3 pots. After air-drying the plants, a spore suspension of the pathogenic microorganism Colletotrichum lagenarium was sprayed onto the plants and the plants were kept in a wet room for 24 hours at 20°-22° C. and 100% relative humidity. The pots were then placed in a greenhouse at 26° C. and, seven days after the spore suspension had been sprayed on, the percentage diseased area of the cotyledon and the first leaf was calculated.

Sphaerotheca fuliginea = assay: Effect on powdery mildew in cucumbers; format: in vivo; conditions: cucumber powdery mildew; 500 ppm; 10 days
Protocol: as §1
Cucumber seedlings (variety Sagamihanshiro), planted two per 12 cm diameter pot, were used as host plants at the stage when the first leaf was fully grown and open. Each test group of three pots was treated with one of the active compounds shown in Table 5 by spraying an aqueous suspension containing 500 ppm of the active compound onto the plants at the rate of 20 ml per 3 pots. After air-drying the plants, the host plants were inoculated with the microorganism Sphaerotheca fuliginea by brushing already infected cucumber leaves with a small brush and letting the microorganism fall onto the host plants. The inoculated plants were kept in a greenhouse at 24°-26° C. for 10 days. At the end of this time, the percentage diseased area was measured.

[2] = test system: third instar larvae of the tobacco cutworm; assay: Repellent action against the third instar larvae of the tobacco cutworm; format: in vivo; parameters: key: -: no ingestion; ±: very little ingestion; +: some ingestion; ++: considerable ingestion; conditions: cabbage leaves dipped in 500 ppm, 72 hours
Excerpt: as §1
Cabbage leaves were dipped for 30 seconds in an aqueous suspension containing 500 ppm of one of the active compounds shown in Table 6. After air-drying, each leaf was placed into a plastic receptacle having a diameter of 8 cm and the third instar larvae (10 per receptacle) of the tobacco cutworm were released onto the leaves. After 72 hours, the extent of ingestion of the leaves was measured, using two receptacles for each test compound. The results are shown in Table 6, using the following notation (which is also employed, with the same meaning, in following Table 9): […]

[3] = test system: final instar larvae of the diamondback moth (Plutella xylostella); assay: Repellent and emergence-inhibition effect on the final instar larvae of diamondback moths; format: in vivo; parameters: key to Extent of ingestion: -: no ingestion; ±: very little ingestion; +: some ingestion; ++: considerable ingestion; conditions: 72 hours; for pest or weed control at 500 ppm: Plutella xylostella, read-out: Emergence-inhibition rate (%); for Extent of ingestion: radish leaves dipped in 500 ppm
Excerpt: as §1
Leaves of the Japanese radish (Raphanus sativus) were dipped for 30 seconds into a liquid containing 500 ppm of one of the compounds shown in Table 9. After air-drying the leaves, each leaf was placed into a plastic icecream cup (diameter 8 cm) and 15 final instar larvae of the diamondback moth (Plutella xylostella) were placed into each cup. Each test was conducted in duplicate and the results were averaged.

[4] = test system: cotton aphid (Aphis gossyppi); assay: Effect on the cotton aphid on cucumbers; format: in vivo; conditions: 600 ppm; 5 sprayings Sept. 25 to Oct. 30; examined Nov. 9; untreated control 8.7
Excerpt: as §1
Cucumbers (variety "Tokiwa Hikari No. 3, Type P") were transplanted into a plastic greenhouse on September 12. Using a shoulder sprayer, a liquid containing 600 ppm of one of the compounds shown in Table 11 was sprayed on the surface and reverse side of the leaves on Sept. 25, Oct. 9, 16, 23 and 30. On Nov. 9, the effect on the cotton aphid (Aphis gossyppi) was investigated, sampling 25-30 leaves at random from each test area and calculating the number of colonies on each leaf; there were generally 50-100 aphids per colony. The results are shown as the number of colonies per leaf in Table 11, which also gives the results for a test area where no compound of the invention was applied.

cockroach larvae = conditions: 24 hours; 25° C.
Piricularia oryzae = format: in vivo; conditions: rice blast; 500 ppm spray; mean, upper two leaves
guppies = assay: Toxicity to guppies; format: in vivo; conditions: LC50 after 48 hours classified
Protocol: In this example the toxicity of the compounds of the invention towards guppies was estimated and is compared with that of corresponding compounds as disclosed and claimed in our co-pending U.S. Application No. 910,117 filed May 30, 1978. The LC50 was determined after 48 hours and the toxicity to guppies was classified into the rankings (i), (ii) and (iii) according to the following classification scheme: […]

SMILES | Diseased area (%) (Phytophthora infestans) | Diseased area (%) [1] [%] | Diseased area (%) (Sphaerotheca fuliginea) | Extent of ingestion [2] | pest or weed control at 500 ppm [3] [%] | Extent of ingestion [3] | No. of colonies per leaf [4] [colonies per leaf] | Mortality rate (%), 0.5mg test cpd/10 cockroaches/bottle (cockroach larvae) [%] | Mortality rate (%), 1mg test cpd/10 cockroaches/bottle (cockroach larvae) [%] | No. of disease spots per leaf (Piricularia oryzae) [spots per leaf] | Toxicity ranking (guppies)
Cc1ccc(C(C)C)cc1OCCN(C)c1ncnc2ccccc12 [Compound No. 21, 4-{N-[2-(5-isopropyl-2-methylphenoxy)ethyl]-N-methylamino}quinazoline] | 12 | 0 | 0 | + | 90 | ± | 1.0 | 90 | 100 |  | 
Cc1ccc(COCCN(C)c2ncnc3ccccc23)cc1 [compound 13, 4-{N-methyl-N-[2-(4-methylbenzyloxy)ethyl]amino}quinazoline] |  |  |  |  |  |  |  | 80 | 100 | 2.9 | 
CN(CCOCc1ccc(Cl)cc1)c1ncnc2ccccc12 [compound 14, 4-{N-[2-(4-chlorobenzyloxy)ethyl]-N-methylamino}quinazoline] |  |  |  |  |  |  |  |  |  | 1.5 | 
CC(C)c1ccccc1OCCN(C)c1ncnc2ccccc12 [compound 15, 4-{N-[2-(2-isopropylphenoxy)ethyl]-N-methylamino}quinazoline] | 0 |  | 0 | ± to + | 60 | ± |  | 80 | 100 | 3.0 | ii (all fish dead at 10 ppm but alive at 0.5 ppm)
Cc1ccc(OCCN(C)c2ncnc3ccccc23)c(C)c1 [compound 17, 4-{N-[2-(2,4-dimethylphenoxy)ethyl]-N-methylamino}-quinazoline] | 9 |  | 0 | + | 50 | ± to + |  | 90 | 100 | 2.4 | ii (all fish dead at 10 ppm but alive at 0.5 ppm)
Cc1ccc(OCCN(C)c2ncnc3ccccc23)cc1 [compound 18, 4-{N-methyl-N-[2-(4-methylphenoxy)ethyl]amino}quinazoline] | 16 |  | 8 |  |  |  |  | 90 | 100 | 2.6 | 
Cc1cc(Cl)ccc1OCCN(C)c1ncnc2ccccc12 [compound 22, 4-{N-[2-(4-chloro-2-methylphenoxy)ethyl]-N-methylamino}quinazoline] | 15 | 0 | 0 | ± to + | 80 | ± | 1.1 | 80 | 100 |  | 
CCCCCCN(CCOc1ccccc1C(C)C)c1ncnc2ccccc12 [compound 44, 4-{N-hexyl-N-[2-(2-isopropylphenoxy)ethyl]amino}quinazoline] |  |  |  |  |  |  |  |  |  | 3.1 | 
CCCCCCCCc1ccc(C)c(OCCN(C)c2ncnc3ccccc23)c1 [compound 56, 4-{N-methyl-N-[2-(2-methyl-5-octylphenoxy)ethyl]amino}quinazoline] |  |  |  |  |  |  |  |  |  | 3.2 | 
CCCCCCCCc1ccc(OCCN(C)c2ncnc3ccccc23)c(C)c1 [compound 58, 4-{N-methyl-N-[2-(2-methyl-4-octylphenoxy)ethyl]amino}quinazoline] | 10 |  |  | ± to + | 85 | ± | 0.5 | 90 | 100 |  | 
